# Results published in patent publication US11230538B2, “Herbicides” (SYNGENTA PARTICIPATIONS AG, priority 2016, dated 2022).
# How the values were obtained:
# Assay type in all cases: in vivo
# [1] = test system: Echinochloa crus-galli (ECHCG); assay: B2 Post-emergence herbicidal activity; set-up: key to Post-emergence herbicidal activity, ECHCG (damage score 0-5): 5=total damage to plant; 0=no damage to plant; details: post-emergence application, rate 1000 g/ha, evaluated after 13 days
# Outline: (§1)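 Plants grown 8 days in standard soil in pots, then sprayed post-emergence with active ingredient in acetone/water (50:50) with 0.5% Tween 20. Glasshouse at 24/16 °C day/night, 14 h light, 65% humidity, watered twice daily. Damage scored after 13 days on a 0–5 scale (5 = total damage).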
# [2] = test system: Echinochloa crus-galli (ECHCG); assay: B1 Pre-emergence herbicidal activity; set-up: key to Pre-emergence herbicidal activity, ECHCG (damage score 0-5): 5=total damage to plant; 0=no damage to plant; details: pre-emergence application, rate 1000 g/ha, evaluated after 13 days
# Outline: (§2)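 Seeds sown in standard soil in pots, held one day in a glasshouse (24/16 °C day/night, 14 h light, 65% humidity), then sprayed pre-emergence with compound in acetone/water (50:50) with 0.5% Tween 20. Plants grown under the same conditions, watered twice daily; damage scored after 13 days (0 = none, 5 = total).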
# Avena fatua (AVEFA) [3] = assay: B2 Post-emergence herbicidal activity; details: post-emergence application, rate 1000 g/ha, evaluated after 13 days
# Outline: as §1
# Lolium perenne (LOLPE) [4] = assay: B2 Post-emergence herbicidal activity; details: post-emergence application, rate 1000 g/ha, evaluated after 13 days
# Outline: as §1
# Setaria fabenr (SETFA) = assay: B1 Pre-emergence herbicidal activity; set-up: key to Pre-emergence herbicidal activity, SETFA (damage score 0-5): 5=total damage to plant; 0=no damage to plant; details: pre-emergence application, rate 1000 g/ha, evaluated after 13 days
# Outline: as §2
# Lolium perenne (LOLPE) [5] = assay: B1 Pre-emergence herbicidal activity; set-up: key to Pre-emergence herbicidal activity, LOLPE (damage score 0-5): 5=total damage to plant; 0=no damage to plant; details: pre-emergence application, rate 1000 g/ha, evaluated after 13 days
# Outline: as §2
# [6] = test system: Alopecurus myosuroides (ALOMY); assay: B1 Pre-emergence herbicidal activity; set-up: key: 5=total damage to plant; 0=no damage to plant; details: pre-emergence application, rate 1000 g/ha, evaluated after 13 days
# Outline: as §2
# Avena fatua (AVEFA) [7] = assay: B1 Pre-emergence herbicidal activity; set-up: key: 5=total damage to plant; 0=no damage to plant; details: pre-emergence application, rate 1000 g/ha, evaluated after 13 days
# Outline: as §2
# [8] = test system: Triticum aestivium (TRZAW); assay: B1 Pre-emergence herbicidal activity; set-up: key: 5=total damage to plant; 0=no damage to plant; details: pre-emergence application, rate 1000 g/ha, evaluated after 13 days
# Outline: as §2
# [9] = test system: Alopecurus myosuroides (ALOMY); assay: B2 Post-emergence herbicidal activity; set-up: key: 5=total damage to plant; 0=no damage to plant; details: post-emergence application, rate 1000 g/ha, evaluated after 13 days
# Outline: as §1
# Setaria fabenri (SETFA) = assay: B2 Post-emergence herbicidal activity; set-up: key: 5=total damage to plant; 0=no damage to plant; details: post-emergence application, rate 1000 g/ha, evaluated after 13 days
# Outline: as §1
# [10] = test system: Triticum aestivium (TRZAW); assay: B2 Post-emergence herbicidal activity; set-up: key: 5=total damage to plant; 0=no damage to plant; details: post-emergence application, rate 1000 g/ha, evaluated after 13 days
# Outline: as §1
SMILES,"Post-emergence herbicidal activity, ECHCG (damage score 0-5) [1]","Pre-emergence herbicidal activity, ECHCG (damage score 0-5) [2]","Post-emergence herbicidal activity, AVEFA (damage score 0-5) (Avena fatua (AVEFA) [3])","Post-emergence herbicidal activity, LOLPE (damage score 0-5) (Lolium perenne (LOLPE) [4])","Pre-emergence herbicidal activity, SETFA (damage score 0-5) (Setaria fabenr (SETFA))","Pre-emergence herbicidal activity, LOLPE (damage score 0-5) (Lolium perenne (LOLPE) [5])","Pre-emergence herbicidal activity, ALOMY (damage score 0-5) [6]","Pre-emergence herbicidal activity, AVEFA (damage score 0-5) (Avena fatua (AVEFA) [7])","Pre-emergence herbicidal activity, TRAZW (damage score 0-5) [8]","Post-emergence herbicidal activity, ALOMY (damage score 0-5) [9]","Post-emergence herbicidal activity, SETFA (damage score 0-5) (Setaria fabenri (SETFA))","Post-emergence herbicidal activity, TRAZW (damage score 0-5) [10]"
C=CCN(C(=O)COC)c1ccc(-c2cncc(F)c2)nc1C(F)(F)F [Compound C63],4,2,2,2,4,1,0,0,0,1,4,0
CC(=O)OC(C)(C)C(=O)Nc1ccc(-c2cncc(F)c2)nc1C(F)(F)F [Compound C36],5,4,2,1,4,1,0,1,0,0,5,1
COC(=O)CCC(=O)N(C(=O)CCC(=O)OC)c1ccc(-c2cncc(F)c2)nc1C(F)(F)F [Compound C119],5,5,4,3,5,1,0,2,0,1,5,3
"O=C1CCCCN1c1ccc(-c2cncc(F)c2)nc1C(F)(F)F [Compound C54, 1-[6-(5-fluoro-3-pyridyl)-2-(trifluoromethyl)-3-pyridyl]piperidin-2-one]",5,2,3,3,3,1,0,1,0,1,4,0
C#CCN(C(=O)C(C)C)c1ccc(-c2cncc(F)c2)nc1C(F)(F)F [Compound C61],4,3,2,2,5,0,0,1,0,1,4,0
O=C(Nc1ccc(-c2cncc(F)c2)nc1C(F)(F)F)c1ccccc1F [Compound C46],3,2,2,1,4,1,0,1,0,0,4,0
O=C(CC(F)(F)F)Nc1ccc(-c2cncc(F)c2)nc1C(F)(F)F [Compound C56],4,3,3,2,4,0,0,1,0,0,4,1
Cc1nc(-c2cncc(F)c2)ccc1NC(=O)C(C)C [Compound C3],5,4,3,3,5,1,0,0,0,1,5,1
CC(C)=CC(=O)Nc1ccc(-c2cncc(F)c2)nc1C(F)(F)F [Compound C37],5,4,3,2,5,1,0,1,0,0,5,0
Cc1ccc(C(=O)Nc2ccc(-c3cncc(F)c3)nc2C(F)(F)F)s1 [Compound C52],4,4,4,2,5,1,1,1,0,0,5,0
O=C(Nc1ccc(-c2cncc(F)c2)nc1C(F)(F)F)C(Cl)(Cl)Cl [Compound C29],5,5,4,3,5,1,0,4,0,0,5,0
CCOC(=O)CC(=O)Nc1ccc(-c2cncc(F)c2)nc1C(F)(F)F [Compound C42],5,4,4,2,4,1,0,2,0,0,5,1
